Test results from ChEMBL document CHEMBL5055636, “Design, Optimization, and Structural Characterization of an Apoptosis-Inducing Factor Peptide Targeting Human Cyclophilin A to Inhibit Apoptosis Inducing Factor-Mediated Cell Death” (J Med Chem, 2021).
pKd: −log10 of the molar value. One block for each compound: values may come before it. The source made the active and inactive calls. No cut-off for these calls is given here. Positions of bridges follow the written chain, without caps; N, C: chain ends. Residues, ends and D or L forms follow the SMILES beside them.

How the values were obtained:
[1] = target: Peptidyl-prolyl cis-trans isomerase A (Homo sapiens, UniProt P62937); experiment: Binding affinity to His6-tagged CypA (unknown origin) expressed in Escherichia coli BL21 (DE3) incubation at 1 hr by multimode plate reader
[2] = Stability of the compound in human serum after 6 hrs by RP-HPLC analysis; assay type: ADME, cell-free
[3] = Stability of the compound in human serum assessed as half life after 12 hrs by RP-HPLC analysis; assay type: ADME, cell-free
[4] = Cytotoxicity against mouse HT-22 cells assessed as cell viability at 50 uM measured after 24 hrs by MTT assay; assay type: cell-based; settings: read-out: Activity
[5] = test system: HT-22; experiment: Neuroprotective activity against […]-induced toxicity in mouse HT-22 cells assessed as increase in survival at 50 uM preincubated for 24 hrs followed by […] and measured after 16 hrs by MTT assay; assay type: functional; settings: time 40 hrs
[6] = Stability of the compound in human serum assessed as compound remaining after 12 hrs by RP-HPLC analysis; assay type: ADME, cell-free; settings: read-out: Stability
[7] = Stability of the compound in human serum after 2 hrs by RP-HPLC analysis; assay type: ADME, cell-free

SMILES: CC[C@H](C)[C@@H]1NC(=O)[C@@H](NC(C)=O)CSSC[C@@H](C(N)=O)NC(=O)[C@H](C(C)C)NC(=O)[C@H](CCCCN)NC(=O)[C@H](CCCNC(=N)N)NC(=O)CNC(=O)[C@H](CC(=O)O)NC(=O)[C@H](CCCCN)NC(=O)[C@H](CC(C)C)NC(=O)[C@H](CCCCN)NC1=O (Ac-CIKLKDGRKVC-NH2; disulfide 1-11)
- Activity [5]: 10%
- pKd [1]: 5.62
- viability at 24 h, 50 µM [4]: > 90%
- remaining at 12 h [6]: 75%
- Stability [7]: Unstable

SMILES: CC[C@H](C)[C@@H]1NC(=O)[C@H](CC(C)C)NC(=O)[C@@H](NC(C)=O)CSSC[C@@H](C(N)=O)NC(=O)[C@H](CCC(=O)O)NC(=O)[C@H](C(C)C)NC(=O)[C@H](CCCCN)NC(=O)[C@H](CCCNC(=N)N)NC(=O)CNC(=O)[C@H](CC(=O)O)NC(=O)[C@H](C)NC(=O)[C@H](CC(C)C)NC(=O)[C@H](CCCCN)NC1=O (Ac-CLIKLADGRKVEC-NH2; disulfide 1-13)
- Activity [1]: inactive

SMILES: CC[C@H](C)[C@@H]1NC(=O)[C@H](CC(C)C)NC(=O)[C@@H](NC(C)=O)CSSC[C@@H](C(N)=O)NC(=O)[C@H](CCC(=O)O)NC(=O)[C@H](C(C)C)NC(=O)[C@H](C)NC(=O)[C@H](CCCNC(=N)N)NC(=O)CNC(=O)[C@H](CC(=O)O)NC(=O)[C@H](CCCCN)NC(=O)[C@H](CC(C)C)NC(=O)[C@H](CCCCN)NC1=O (Ac-CLIKLKDGRAVEC-NH2; disulfide 1-13)
- Activity [1]: inactive

SMILES: CC[C@H](C)[C@@H]1NC(=O)[C@H](CC(C)C)NC(=O)[C@@H](NC(C)=O)CSSC[C@@H](C(N)=O)NC(=O)[C@H](CCC(=O)O)NC(=O)[C@H](C(C)C)NC(=O)[C@H](CCCCN)NC(=O)[C@H](CCCNC(=N)N)NC(=O)CNC(=O)[C@H](CC(=O)O)NC(=O)[C@H](CCCCN)NC(=O)[C@H](CC(C)C)NC(=O)[C@H](C)NC1=O (Ac-CLIALKDGRKVEC-NH2; disulfide 1-13)
- Activity [1]: inactive

SMILES: CC[C@H](C)[C@@H]1NC(=O)[C@H](CC(C)C)NC(=O)[C@@H](NC(C)=O)CSSC[C@@H](C(N)=O)NC(=O)[C@H](CCC(=O)O)NC(=O)[C@H](C(C)C)NC(=O)[C@H](CCCCN)NC(=O)[C@H](C)NC(=O)CNC(=O)[C@H](CC(=O)O)NC(=O)[C@H](CCCCN)NC(=O)[C@H](CC(C)C)NC(=O)[C@H](CCCCN)NC1=O (Ac-CLIKLKDGAKVEC-NH2; disulfide 1-13)
- Activity [1]: inactive

Further lines, with some results ahead:

- pKd [1]: 4.52
SMILES: CC[C@H](C)[C@H](NC(=O)[C@H](CC(C)C)NC(=O)[C@H](CS)NC(C)=O)C(=O)N[C@@H](CCCCN)C(=O)N[C@@H](CC(C)C)C(=O)N[C@@H](CCCCN)C(=O)N[C@@H](CC(=O)O)C(=O)NCC(=O)N[C@@H](CCCNC(=N)N)C(=O)N[C@@H](CCCCN)C(=O)N[C@H](C(=O)N[C@@H](CCC(=O)O)C(=O)N[C@@H](CS)C(N)=O)C(C)C (Ac-CLIKLKDGRKVEC-NH2)

- Stability [2]: Unstable
- half-life [3]: 4 h
SMILES: CC[C@H](C)[C@H](NC(=O)[C@H](Cc1cnc[nH]1)NC(=O)[C@H](CC(=O)O)NC(=O)[C@@H](NC(=O)[C@H](CCC(=O)O)NC(=O)[C@@H](NC(=O)[C@H](CCCCN)NC(=O)[C@H](CCCNC(=N)N)NC(=O)CNC(=O)[C@H](CC(=O)O)NC(=O)[C@H](CCCCN)NC(=O)[C@H](CC(C)C)NC(=O)[C@H](CCCCN)NC(=O)[C@@H](NC(=O)[C@H](CC(C)C)NC(=O)[C@H](CC(C)C)NC(=O)[C@H](CCCCN)NC(=O)CNC(=O)[C@H](CO)NC(=O)[C@H](CO)NC(=O)[C@@H](NC(=O)CNC(=O)[C@@H](NC(=O)[C@H](CO)NC(=O)[C@@H](N)CCC(N)=O)C(C)C)C(C)C)[C@@H](C)CC)C(C)C)[C@@H](C)O)C(=O)O
- viability at 24 h, 50 µM [4]: > 90%

- Activity [1]: Active
SMILES: CC[C@H](C)[C@@H]1NC(=O)[C@H](C)NC(=O)[C@@H](NC(C)=O)CSSC[C@@H](C(N)=O)NC(=O)[C@H](CCC(=O)O)NC(=O)[C@H](C(C)C)NC(=O)[C@H](CCCCN)NC(=O)[C@H](CCCNC(=N)N)NC(=O)CNC(=O)[C@H](CC(=O)O)NC(=O)[C@H](CCCCN)NC(=O)[C@H](CC(C)C)NC(=O)[C@H](CCCCN)NC1=O (Ac-CAIKLKDGRKVEC-NH2; disulfide 1-13)

- Activity [1]: Active
SMILES: CC[C@H](C)[C@@H]1NC(=O)[C@H](CC(C)C)NC(=O)[C@@H](NC(C)=O)CSSC[C@@H](C(N)=O)NC(=O)[C@H](CCC(=O)O)NC(=O)[C@H](C(C)C)NC(=O)[C@H](CCCCN)NC(=O)[C@H](CCCNC(=N)N)NC(=O)CNC(=O)[C@H](CC(=O)O)NC(=O)[C@H](CCCCN)NC(=O)[C@H](C)NC(=O)[C@H](CCCCN)NC1=O (Ac-CLIKAKDGRKVEC-NH2; disulfide 1-13)

- Activity [1]: Active
SMILES: CC[C@H](C)[C@@H]1NC(=O)[C@H](CC(C)C)NC(=O)[C@@H](NC(C)=O)CSSC[C@@H](C(N)=O)NC(=O)[C@H](CCC(=O)O)NC(=O)[C@H](C)NC(=O)[C@H](CCCCN)NC(=O)[C@H](CCCNC(=N)N)NC(=O)CNC(=O)[C@H](CC(=O)O)NC(=O)[C@H](CCCCN)NC(=O)[C@H](CC(C)C)NC(=O)[C@H](CCCCN)NC1=O (Ac-CLIKLKDGRKAEC-NH2; disulfide 1-13)

- pKd [1]: 5.49
SMILES: CC[C@H](C)[C@@H]1NC(=O)[C@H](CC(C)C)NC(=O)[C@@H](NC(C)=O)CSSC[C@@H](C(N)=O)NC(=O)[C@H](CCC(=O)O)NC(=O)[C@H](C(C)C)NC(=O)[C@H](CCCCN)NC(=O)[C@H](CCCNC(=N)N)NC(=O)CNC(=O)[C@H](CC(=O)O)NC(=O)[C@H](CCCCN)NC(=O)[C@H](CC(C)C)NC(=O)[C@H](CCCCN)NC1=O (Ac-CLIKLKDGRKVEC-NH2; disulfide 1-13)

- Activity [1]: Active
SMILES: CC(=O)N[C@H]1CSSC[C@@H](C(N)=O)NC(=O)[C@H](CCC(=O)O)NC(=O)[C@H](C(C)C)NC(=O)[C@H](CCCCN)NC(=O)[C@H](CCCNC(=N)N)NC(=O)CNC(=O)[C@H](CC(=O)O)NC(=O)[C@H](CCCCN)NC(=O)[C@H](CC(C)C)NC(=O)[C@H](CCCCN)NC(=O)[C@H](C)NC(=O)[C@H](CC(C)C)NC1=O (Ac-CLAKLKDGRKVEC-NH2; disulfide 1-13)
